# Laboratory results: patent EP3875583A1, “GENETIC CASSETTE COMPRISING THE PHT PATHWAY GENES, RECOMBINANT HOST CELLS COMPRISING IT AND THEIR USE IN THE DEGRADATION AND VALORIZATION OF PHTHALATES” (Consejo Superior de Investigaciones Científicas (CSIC), priority 2020, dated 2021)
# Key:
# Assay type in all cases: cell-based
# [1] = system: A. evansii cells; experiment: [14C]-PA uptake assay in A. evansii cells grown under nitrate-reducing conditions; conditions: Aromatoleum evansii; cells grown anaerobically on PA, exposed to 1 mM inhibitor before the [14C]-PA transport assay; read-out: PA transport capacity retained
# Procedure: Cells were grown in NB from A600 of 0.1 to A600 of 1.8≈2.0, incubated for 14h, induced by adding 1.0 mM IPTG. Cells were harvested by centrifugation, washed twice in sodium salt and suspended at a cell density of 1090 mg of protein/liter (A600 of 4.0) in sodium salt. The uptake of radioactive o-phthalate into cells was followed in a reaction mixture containing 50 µL of prewarmed cells (at 30°C for 5 min) and 50 µL of 250 µM [^14C]-o-phthalate. […] Phthalate uptake was stopped by diluting the suspensions with 1 mL of ice-cold sodium salt, collecting the cells on a 0.22-µm-pore-size Millipore GSWP nitrocellulose filter, and washing, under suction, the cells with 5 mL of ice-cold sodium salt. The filter was dissolved in 2 ml of scintillation fluid (Cocktail Ready Safe, Beckman) and counted in an LKB Wallac liquid scintillation counter. […] To test the transporter's specificity the assays were performed according to the standard procedure but adding different unlabeled substrates: o-phthalate (250 mM), isophthalate (250 mM), terephthalate (250 mM).
# To study PA transport in denitrifying bacteria expressing the pht peripheral pathway, we used A. evansii cells grown anaerobically in MC medium containing 5 mM benzoate or 5 mM PA. Cells suspended in sodium salt were incubated with 25 µM [^14C]-PA, and a time-course of the amount of [^14C]-PA incorporated into the cells was determined. […]
# [2] = system: PhtTa-PhtTb TAXI-TRAP transporter; experiment: [14C]-PA uptake assay in Azoarcus sp. CIB (pIZPHTRAP) cells expressing the transporter; conditions: for [14C]-PA uptake after pre-incubation with inhibitor: cells pre-incubated 10 min with 1 mM inhibitor before the transport assay; for [14C]-PA uptake rate, % of the rate in the absence of a competitor substrate: 25 µM [14C]-PA
# Procedure: Cells were grown in NB from A600 of 0.1 to A600 of 1.8≈2.0, incubated for 14h, induced by adding 1.0 mM IPTG. Cells were harvested by centrifugation, washed twice in sodium salt and suspended at a cell density of 1090 mg of protein/liter (A600 of 4.0) in sodium salt. […] Phthalate uptake was stopped by diluting the suspensions with 1 mL of ice-cold sodium salt, collecting the cells on a 0.22-µm-pore-size Millipore GSWP nitrocellulose filter, and washing, under suction, the cells with 5 mL of ice-cold sodium salt. The filter was dissolved in 2 ml of scintillation fluid (Cocktail Ready Safe, Beckman) and counted in an LKB Wallac liquid scintillation counter. […]
# We have shown above that the phtTa-phtTb transport genes are essential for the anaerobic degradation of PA. To confirm that the phtTa-phtTb genes encode a PA transporter and to determine its biochemical properties, we performed PA uptake experiments at different [^14C]-PA concentrations in Azoarcus sp. […] CIB (pIZPHTRAP), i.e., cells that express the catabolic pht genes as well as the phtTa-phtTb transport genes - the genetic cassette of the invention. […]. […] [^14C]-PA uptake rates were tested in the presence of non-radioactive phthalate isomers as competitors.
# [3] = system: boxB2 gene; experiment: real-time RT-PCR gene expression in C. necator H16 (pIZPHTRAP) cells; conditions: cells grown on 3 mM PA compared with 18 mM pyruvate (control)
# Procedure: (§1) Cupriavidus necator H16 and Azoarcus sp. CIB cells harboring plasmid pIZPHTRAP were grown aerobically on PA-, benzoate- or pyruvate-containing MC medium until the culture reached to the end of the exponential phase. Cells were lysed in TE buffer (10 mM Tris-HCI, pH 7.5, 1 mM EDTA) containing 50 mg ml^-1 lysozyme. Total RNA was extracted using a High Pure RNA isolation kit (Roche), and then it was DNase-treated with a Turbo DNase kit (Ambion). The concentration and purity of the RNA samples were assessed using a Nanophotometer Pearl (Implen) according to the manufacturer's protocols, and by testing the absence of DNA through PCR amplification. Synthesis of total cDNA was performed by using the Transcriptor First Strand cDNA Synthesis kit (Roche) in 20-µl reactions containing 1 µg of RNA, 1 mM concentration of each dNTP, 10 units of reverse transcriptase, 20 units of Protector RNase Inhibitor, and 60 µM random hexamers as primers in the buffer provided by the manufacturer. The RNA and hexamers were initially heated at 65 °C for 10 min and following the addition of the rest of the components, samples were incubated at 25°C for 10 min and then at 55°C for 30 min. Reactions were terminated by incubation at 85°C for 5 min. In standard RT-PCR reactions, the cDNA was amplified with 1 unit of AmpliTaq DNA polymerase (Biotools) and […] concentrations of the corresponding primer pairs of the boxB gene from Azoarcus sp. CIB (Table 2). […] For relative quantification of the fluorescence values, a calibration curve was constructed by sevenfold serial dilutions of a C. necator H16 genomic DNA sample ranging from 1 ng to 0.5 x10-7 ng. […]
# (§2) To confirm that C. necator H16 (pIZPHTRAP) was degrading PA via the box pathway, we analyzed the expression of some marker genes of the classical ben-cat pathway, e.g. benA gene, and the hybrid box pathway, e.g., boxB1 (for cluster box1) and boxB2 (for cluster box2) (Fig. 5C). qRT-PCR gene expression studies of C. necator H16 (pIZPHTRAP) cells grown on PA were compared with those of cells grown on pyruvate (control). […]
# [4] = system: benA gene; experiment: as above; conditions: cells grown on 3 mM PA compared with 18 mM pyruvate (control); result in words
# Procedure: as §1, §2
# [5] = system: boxB1 gene; experiment: as above; conditions: cells grown on 3 mM PA compared with 18 mM pyruvate (control)
# Procedure: as §1, §2
# [6] = system: Azoarcus sp. CIB (pIZPHTRAP) strain
# [7] = system: C. necator H16 (pIZPHTRAP) cells; experiment: PHB content by GC-MS of the methanolysed polyester, aerobic bioconversion; conditions: cells grown aerobically on the substance as sole carbon source (3 mM), MC medium, 30°C, stationary phase
structure (smiles),measurement,setting,value
"C(=NC1CCCCC1)=NC1CCCCC1 [DCCD, 1,3-dicyclohexylcarbodiimide, reference compound]",activity at 1000 µM,[1],> 80%
same,[14C]-PA uptake after pre-incubation with inhibitor,[2]; result in words,did not decrease
"O=C(O)c1ccccc1C(=O)O [PA, o-phthalate]",fold induction at 3000 µM,[3],~400
same,basal expression of the benA gene,[4],similar
same,fold induction at 3000 µM,[5],~40
same,uptake rate of 25 µM [14C]-PA with competitor,"[2]; 250 µM unlabeled competitor, result in words",completely inhibited
same,Km,"[2]; Azoarcus sp. CIB (pIZPHTRAP) cells, read-out: transport affinity (Km)",15 µM
same,saturation kinetics,"[2]; PA concentration at saturation, Azoarcus sp. CIB (pIZPHTRAP) cells",about 20 µM
same,maximum uptake rate,"[2]; [14C]-PA 5 to 25 µM, Azoarcus sp. CIB (pIZPHTRAP) cells",about 156 ± 14 pmol min^-1 mg protein^-1
same,"PHB production efficiency, lower than that of the recombinant C. necator H16 strain",[6],5 fold
"O=C(O)c1cccc(C(=O)O)c1 [isophthalate, reference compound]","[14C]-PA uptake rate, % of the rate in the absence of a competitor substrate",[2]; 250 µM unlabeled competitor,50%
"O=C(O)c1ccc(C(=O)O)cc1 [terephthalate, reference compound]","[14C]-PA uptake rate, % of the rate in the absence of a competitor substrate",[2]; 250 µM unlabeled competitor,60%
O=C(O)c1ccccc1 [benzoate],"PHB accumulated, of the total cell dry weight",[7],14%
"O=[N+]([O-])c1ccc(O)c([N+](=O)[O-])c1 [DNP, 2,4-dinitrophenol, reference compound]",[14C]-PA uptake after pre-incubation with inhibitor,[2]; result in words,completely inhibited
